The source of these data is patent publication US20220227729A1, “IDENTIFICATION AND USE OF KRAS INHIBITORS” (Bayer Aktiengesellschaft, priority 2019, published 2022).

The structures appear in SMILES notation.

In one experiment the target is KRAS^G12C (Homo sapiens, UniProt P01116, G12C). The experiment in a line: KRAS G12C activation by SOS1cat assay (On-assay), HTRF. Particulars: SOS1cat mediated loading of GST-KRAS G12C-GDP with fluorescent GTP analogue; 180 min preincubation; 20° C.; read-out: IC50 value biochemical KRAS^G12C activation assay. As to the method:
(§1) Preparation of test compound dilutions. A 100-fold concentrated solution of the test compound (50 nL) in DMSO was transferred to microtiter test plates (384 or 1,536 wells, Greiner Bio-One, Germany) using either a Hummingbird liquid handler (Digilab, MA, USA) or an Echo acoustic system (Labcyte, CA, USA). Plates were sealed with adhesive foil or heat-sealed and stored at −20° C. until use. Serial dilutions of test compounds were prepared in 100% DMSO using a Precision Pipetting System (BioTek, USA).
(§2) Measurement and evaluation of inhibition data, calculation of IC50 values. Homogeneous time-resolved fluorescence (HTRF) was measured with a PHERAstar reader (BMG, Germany) using the HTRF module (excitation: 337 nm; emission 1: 620 nm, emission 2: 665 nm). The ratio of the emissions at 665 and 620 nm was used as the specific signal for further evaluation. The data were normalized using the controls: DMSO=0% inhibition, inhibition control wells with inhibitor control solution=100% inhibition. Compounds were tested in duplicates at up to 11 concentrations (e.g. 20 μM, 5.7 μM, 1.6 μM, 0.47 μM, 0.13 μM, 38 nM, 11 nM, 3.1 nM, 0.89 nM, 0.25 nM and 0.073 nM). IC50 values were calculated using a four-parameter fit, with a commercial software package (Genedata Screener, Switzerland).
(§3) KRAS^G12C activation by SOS1^cat assay (“On-assay”). This assay quantifies SOS1^cat mediated loading of KRAS^G12C-GDP with a fluorescent GTP analogue. Detection of successful loading was achieved by measuring resonance energy transfer from anti-GST-terbium (FRET donor) bound to GST-KRAS^G12c to the loaded fluorescent GTP analogue (FRET acceptor). The fluorescent GTP analogue EDA-GTP-DY-647P1 [2′/3′-O-(2-aminoethyl-carbamoyl)guanosine-5′-triphosphate labelled with DY-647P1 (Dyomics GmbH, Germany)] was synthesized by Jena Bioscience (Germany) and supplied as a 1 mM aqueous solution. A KRAS^G12C working solution was prepared in assay buffer [10 mM HEPES pH 7.4 (AppliChem), 150 mM NaCl (Sigma), 5 mM MgCl2 (Sigma), 1 mM DTT (Thermo Fisher), 0.05% BSA Fraction V pH 7.0 (ICN Biomedicals), 0.0025% (v/v) Igepal (Sigma)] containing 100 nM GST-KRAS^G12C and 2 nM anti-GST-terbium (Cisbio, France). A SOS1^cat working solution was prepared in assay buffer containing 20 nM SOS1^cat and 200 nM EDA-GTP-DY-647P1. An inhibitor control solution was prepared in assay buffer containing 200 nM EDA-GTP-DY-647P1 without SOS1^cat. All steps of the assay were performed at 20° C. A volume of 2.5 μL of the KRAS^G12C working solution was added to all wells of the test plate using a Multidrop dispenser (Thermo LabSystems). After 180 min, 2.5 μL of the SOS1^cat working solution was added to all wells, except for the inhibitor control solution wells. After 30 min incubation, HTRF was measured.
On the technique in general: TR-FRET usually uses a lanthanide donor and a delayed reading to cut background.

Another experiment has as its target KRAS^WT (Homo sapiens, UniProt P01116). The experiment in a line: Wild-type KRAS activation by SOS1cat assay, HTRF. Particulars: SOS1cat mediated loading of GST-KRAS WT-GDP with fluorescent GTP analogue; 50 nM GST-KRAS WT; read-out: IC50 value biochemical KRAS^wt activation assay. As to the method: as §1, §2, §3
Wild-type KRAS activation by SOS1^cat assay. This assay quantifies human SOS1^cat mediated loading of wild-type GST-KRAS^WT-GDP with a fluorescent GTP analogue. The assay was performed similar to the KRAS^G12C activation by SOS1^cat assay. GST-KRAS^G12C was replaced by GST-KRAS^WT, which was used at 50 nM final concentration.

The target in experiment [1] is recombinant kRas mutant (G12C; C51S; C80L; C118S) (Homo sapiens, UniProt P01116, C118S/C51S/C80L/G12C). In words: Covalent binding assay, intact mass LC-MS. As to conditions: 25 μM protein, 25 μM compound, room temperature, 2 h. As to the method:
The percentage of covalent adduct formation at KRas G12C was determined by intact mass determination. To this end 25 μM recombinant kRas mutant (G12C; C51S; C80L; C118S) (storage buffer: 50 mM Tris, pH=8; 50 mM NaCl) were incubated with 25 μM of compound (1% v/v final DMSO concentration) at room temperature for 2 h. For LC-MS analysis the reaction was acidified by adding 4 μL of 4% v/v TFA to 20 μL reaction volume.
Liquid chromatography-mass spectrometry (LC-MS) analysis was performed using a Waters SYNAPT G2-S quadrupole time-of-flight mass spectrometer connected to a Waters nanoAcquity UPLC system. Samples were loaded on a 2.1×5 mm mass prep C4 guard column (Waters) and desalted with a short gradient (3 min.) of increasing concentrations of acetonitrile at a flow rate of 100 μL/min. Spectra were analyzed by using MassLynx v4.1 software and deconvoluted with the MaxEnt1 algorithm.
Percent conversion was determined by the ratio of signal intensities of apo-kRas and kRas+inhibitor.

In the case of `C=CC(=O)N1CCC(c2cc3ccc(-c4cccc5[nH]ccc45)cc3c(=O)[nH]2)C1` (stereo not drawn) [Example 3, 7-(1H-Indol-4-yl)-3-[1-(prop-2-enoyl)pyrrolidin-3-yl]isoquinolin-1(2H)-one], the concentration for half-maximal inhibition (IC50) at KRAS^G12C and at KRAS^WT was > 20 µM each time. Also, the “Covalent Binding Assay (% binding)” value in experiment [1] is on record as 8%.

On to `C=CC(=O)N1CCC(c2cc3ncc(-c4c(F)cccc4OC)cc3c(=O)[nH]2)C1` (stereo not drawn) [Example 28, 3-(2-Fluoro-6-methoxyphenyl)-7-[1-(prop-2-enoyl)pyrrolidin-3-yl]-1,6-naphthyridin-5(6H)-one], for which the IC50 (as a rule, the concentration that gives 50% inhibition) was 10 µM on KRAS^G12C and > 20 µM at KRAS^WT. In experiment [1], the “Covalent Binding Assay (% binding)” value is 52%.

As for `C=CC(=O)N1CCC(c2nc3cc(Cl)c(-c4ccccc4F)cc3c(=O)[nH]2)C1` (stereo not drawn) [Example 22, 7-Chloro-6-(2-fluorophenyl)-2-[1-(prop-2-enoyl)pyrrolidin-3-yl]quinazolin-4(3H)-one], the figures for the IC50 on KRAS^G12C and at KRAS^WT were 18 µM and > 20 µM, respectively. In addition, the “Covalent Binding Assay (% binding)” value in experiment [1] is listed as 31%.

As for `C=CC(=O)N1CCC(c2nc3ccc(-c4cncc5ccccc45)cc3c(=O)[nH]2)C1` (stereo not drawn) [Example 18, 6-(Isoquinolin-4-yl)-2-[1-(prop-2-enoyl)pyrrolidin-3-yl]quinazolin-4(3H)-one], the IC50 on KRAS^G12C and on KRAS^WT was > 20 µM each time. For the same compound, the “Covalent Binding Assay (% binding)” value in experiment [1] is given as 4%.

In the case of `C=CC(=O)N1CCC(c2cc3ncc(-c4ccc(F)cc4F)cc3c(=O)[nH]2)C1` (stereo not drawn) [Example 31, 3-(2,4-Difluorophenyl)-7-[1-(prop-2-enoyl)pyrrolidin-3-yl]-1,6-naphthyridin-5(6H)-one], the IC50 on KRAS^G12C is > 14 µM; on KRAS^WT, > 20 µM. Also, the “Covalent Binding Assay (% binding)” value in experiment [1] turned out to be 62%.

As for `C=CC(=O)N1CCC(c2cc3ncc(-c4cccnc4N4CCOCC4)cc3c(=O)[nH]2)C1` (stereo not drawn) [Example 35, 3-[2-(Morpholin-4-yl)pyridin-3-yl]-7-[1-(prop-2-enoyl)pyrrolidin-3-yl]-1,6-naphthyridin-5(6H)-one], the half-maximal inhibitory concentration (IC50) on KRAS^G12C and at KRAS^WT was > 20 µM throughout. Moreover, the “Covalent Binding Assay (% binding)” value in experiment [1] amounted to 0%.

As for `C=CC(=O)N1CCC(c2nc3cnc(-c4c(C)ccc5[nH]ncc45)cc3c(=O)[nH]2)C1` (stereo not drawn) [Example 40, 6-(5-Methyl-1H-indazol-4-yl)-2-[1-(prop-2-enoyl)pyrrolidin-3-yl]pyrido[3,4-d]pyrimidin-4(3H)-one], the IC50 at KRAS^G12C was 4.7 µM; at KRAS^WT, > 20 µM. In addition, the “Covalent Binding Assay (% binding)” value in experiment [1] is reported as 66%.

With `C=CC(=O)N1CCC(c2cc3ncc(-c4ccc(F)c(O)c4)cc3c(=O)[nH]2)C1` (stereo not drawn) [Example 37, 3-(4-Fluoro-3-hydroxyphenyl)-7-[1-(prop-2-enoyl)pyrrolidin-3-yl]-1,6-naphthyridin-5(6H)-one], the IC50 at KRAS^G12C and on KRAS^WT was > 20 µM throughout. In addition, the “Covalent Binding Assay (% binding)” value in experiment [1] is 21%.

As to `C=CC(=O)N1CCC(c2cc3ncc(-c4cccc5ncccc45)cc3c(=O)[nH]2)C1` (stereo not drawn) [Example 32, 7-[1-(Prop-2-enoyl)pyrrolidin-3-yl]-3-(quinolin-5-yl)-1,6-naphthyridin-5(6H)-one], the IC50 on KRAS^G12C and at KRAS^WT was > 20 µM throughout. Also, the “Covalent Binding Assay (% binding)” value in experiment [1] is listed as 13%.

As for `C=CC(=O)N1CCC(c2nc3ccc(-c4sc(C)nc4C)cc3c(=O)[nH]2)C1` (stereo not drawn) [Example 19, 6-(2,4-dimethyl-1,3-thiazol-5-yl)-2[1-(prop-2-enoyl)pyrrolidin-3-yl]quinazolin-4(3H)-one], the IC50 on KRAS^G12C and on KRAS^WT was > 20 µM in each case. Besides, in experiment [1], the “Covalent Binding Assay (% binding)” value is reported as 4%.

Consider `C=CC(=O)N1CCC(c2nc3cnc(-c4c(O)cccc4F)cc3c(=O)[nH]2)C1` (stereo not drawn) [Example 39, 6-(2-Fluoro-6-hydroxyphenyl)-2-[1-(prop-2-enoyl)pyrrolidin-3-yl]pyrido[3,4-d]pyrimidin-4(3H)-one], for which the concentration for half-maximal inhibition (IC50) at KRAS^G12C is 2.6 µM; at KRAS^WT it was > 20 µM. Also, the “Covalent Binding Assay (% binding)” value in experiment [1] came to 73%.

`C=CC(=O)N1CCC(c2cc3ccc(-c4ccc(F)c(OCC)c4F)cc3c(=O)[nH]2)C1` (stereo not drawn) [Example 6, 7-(3-Ethoxy-2,4-difluorophenyl)-3-[1-(prop-2-enoyl)pyrrolidin-3-yl]isoquinolin-1(2H)-one]: the IC50 at KRAS^G12C and on KRAS^WT was > 20 µM each time. Further, the “Covalent Binding Assay (% binding)” value in experiment [1] was 3%.

In the case of `C=CC(=O)N1CCC(c2nc3ccc(-c4ccccc4F)cc3c(=O)[nH]2)C1` (stereo not drawn) [Example 12, 6-(2-Fluorophenyl)-2-[1-(prop-2-enoyl)pyrrolidin-3-yl]quinazolin-4(3H)-one], the IC50 at KRAS^G12C was 6.2 µM; on KRAS^WT, > 20 µM. Further, in experiment [1], the “Covalent Binding Assay (% binding)” value stood at 70%.

Regarding `C=CC(=O)N1CCC(c2cc3ncc(-c4ccccc4F)cc3c(=O)[nH]2)C1` (stereo not drawn) [Example 30, 3-(2-Fluorophenyl)-7-[1-(prop-2-enoyl)pyrrolidin-3-yl]-1,6-naphthyridin-5(6H)-one], the IC50 was 5.3 µM on KRAS^G12C and > 20 µM at KRAS^WT. Moreover, the “Covalent Binding Assay (% binding)” value in experiment [1] was 69%.

For the compound `C=CC(=O)N1CCC(c2nc3ccc(-c4cc(Cl)cc(C#N)c4)cc3c(=O)[nH]2)C1` (stereo not drawn) [Example 16, 3-Chloro-5-{4-oxo-2-[1-(prop-2-enoyl)pyrrolidin-3-yl]-3,4-dihydroquinazolin-6-yl}benzonitrile], the IC50 on KRAS^G12C and at KRAS^WT was > 20 µM in each case. Further, the “Covalent Binding Assay (% binding)” value in experiment [1] is reported as 0%.

Turning to `C=CC(=O)N1CCC(c2cc3ccc(-c4ccc(F)c(F)c4F)cc3c(=O)[nH]2)C1` (stereo not drawn) [Example 7, 3-[1-(Prop-2-enoyl)pyrrolidin-3-yl]-7-(2,3,4-trifluorophenyl)isoquinolin-1(2H)-one], the 50% inhibitory concentration (IC50) at KRAS^G12C was > 7 µM; on KRAS^WT it was > 20 µM. The “Covalent Binding Assay (% binding)” value in experiment [1] amounted to 31%.

With `C=CC(=O)N1CCC(c2nc3cc(Cl)c(-c4cccc5ncccc45)cc3c(=O)[nH]2)C1` (stereo not drawn) [Example 26, 7-chloro-2-[1-(prop-2-enoyl)pyrrolidin-3-yl]-6-(quinolin-5-yl)quinazolin-4(3H)-one], the IC50 on KRAS^G12C was > 19 µM; on KRAS^WT, > 20 µM. For the same compound, the “Covalent Binding Assay (% binding)” value in experiment [1] is listed as 41%.

Consider `C=CC(=O)N1CCC(c2nc3cc(Cl)c(-c4c(O)cccc4F)cc3c(=O)[nH]2)C1` (stereo not drawn) [Example 24, 7-Chloro-6-(2-fluoro-6-hydroxyphenyl)-2-[1-(prop-2-enoyl)pyrrolidin-3-yl]quinazolin-4(3H)-one], for which the IC50 is 9.1 µM on KRAS^G12C and > 20 µM at KRAS^WT. Moreover, the “Covalent Binding Assay (% binding)” value in experiment [1] is 53%.
